Values quoted from earlier work, collected in patent US20100323983A1, “PHARMACEUTICAL OR COSMETIC PREPARATIONS FOR TOPICAL AND/OR PARENTERAL APPLICATION, PREPARATION METHODS THEREOF, AND USES THEREOF” (priority 2007, published 2010).

Settings: humans

excretion in the urine: less than 1 % of total clearance
Substance: hyaluronic acid
